Experimental data reported in ChEMBL document CHEMBL1153272, “(2-Aryl-5-methylimidazol-4-ylcarbonyl)guanidines and (2-aryl-5-methyloxazol-4-ylcarbonyl)guanidines as NHE-1 inhibitors” (Bioorg Med Chem Lett, 2009).
pIC50: −log10 of the molar value.

What was measured:
[1] = target: Sodium/hydrogen exchanger 1 (Homo sapiens, UniProt P19634); assay: Inhibition of human NHE1 expressed in PS120 cells assessed as imposed acidosis; assay type: cell-based
Heart [2] = assay: Cardioprotective activity in Langendorff perfused rat heart assessed as recovery of rate pressure product at 10 uM treated 10 mins before global ischemia challenge for 30 mins followed by 30 mins of reperfusion; assay type: functional
Heart [3] = assay: Cardioprotective activity in Langendorff perfused rat heart assessed as left ventricular end diastolic pressure at 10 uM treated 10 mins before global ischemia challenge for 30 mins followed by 30 mins of reperfusion; assay type: functional
Rattus norvegicus = assay: Cardioprotective activity in Langendorff perfused rat myocardial infarction model assessed as ratio of myocardial infarction size to area at risk at 0.1 mg/kg, iv administered 5 mins before onset ischemia challenge followed by 90 mins reperfusion; assay type: functional, Myocardium

Chain of Sodium/hydrogen exchanger 1 (P19634 whole entry, the tested form may be a part): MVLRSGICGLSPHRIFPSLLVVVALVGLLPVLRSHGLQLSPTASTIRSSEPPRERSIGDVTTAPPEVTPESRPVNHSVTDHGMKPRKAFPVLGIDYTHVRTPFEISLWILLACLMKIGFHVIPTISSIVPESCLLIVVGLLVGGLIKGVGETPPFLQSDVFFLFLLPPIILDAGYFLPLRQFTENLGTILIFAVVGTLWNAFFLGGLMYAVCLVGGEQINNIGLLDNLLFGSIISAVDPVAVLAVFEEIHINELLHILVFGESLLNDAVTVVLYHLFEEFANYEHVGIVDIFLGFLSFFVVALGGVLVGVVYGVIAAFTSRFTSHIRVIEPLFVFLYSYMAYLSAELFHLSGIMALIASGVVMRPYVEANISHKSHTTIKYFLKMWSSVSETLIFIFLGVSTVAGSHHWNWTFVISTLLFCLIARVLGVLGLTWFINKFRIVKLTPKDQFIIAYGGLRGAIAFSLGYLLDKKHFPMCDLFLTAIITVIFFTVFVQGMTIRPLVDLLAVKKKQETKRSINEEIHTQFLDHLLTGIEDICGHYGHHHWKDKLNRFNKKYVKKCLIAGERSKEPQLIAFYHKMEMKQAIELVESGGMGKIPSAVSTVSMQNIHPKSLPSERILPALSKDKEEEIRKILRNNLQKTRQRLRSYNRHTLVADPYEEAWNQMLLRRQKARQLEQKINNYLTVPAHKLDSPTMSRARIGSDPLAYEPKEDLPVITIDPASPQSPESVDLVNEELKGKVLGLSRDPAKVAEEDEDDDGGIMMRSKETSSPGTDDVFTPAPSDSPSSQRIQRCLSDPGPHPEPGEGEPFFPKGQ

Row | Compound | pIC50 [1] | Activity (Heart [2]) [%] | Activity (Heart [3]) [%] | Activity (Rattus norvegicus) [%]
1 | Cc1[nH]c(-c2cc(F)ccc2F)nc1C(=O)N=C(N)N | 5.52 |  |  | 
2 | COc1ccc(-c2nc(C(=O)N=C(N)N)c(C)[nH]2)cc1OC | 5.68 |  |  | 
3 | COc1cccc(-c2nc(C(=O)N=C(N)N)c(C)[nH]2)c1 | 5.39 |  |  | 
4 | COc1ccc(F)cc1-c1nc(C(=O)N=C(N)N)c(C)[nH]1.CS(=O)(=O)O.CS(=O)(=O)O | 6.10 | 27 | 29 | 
5 | CS(=O)(=O)O.CS(=O)(=O)O.Cc1ccc(C)c(-c2nc(C(=O)N=C(N)N)c(C)[nH]2)c1 | 5.96 | 33 | 32 | 45
6 | Cc1oc(-c2cccc(F)c2)nc1C(=O)N=C(N)N | 5.38 |  |  | 
7 | Cc1cccc(-c2nc(C(=O)N=C(N)N)c(C)o2)c1 | 5.18 |  |  | 
8 | Cc1oc(-c2ccc(Cl)cc2)nc1C(=O)N=C(N)N | < 4.52 |  |  | 
9 | Cc1oc(-c2cc(F)cc(F)c2)nc1C(=O)N=C(N)N | 5.48 |  |  | 
10 | Cc1[nH]c(-c2ccccc2F)nc1C(=O)N=C(N)N | 5.14 |  |  | 
11 | Cc1[nH]c(-c2ccc(F)cc2)nc1C(=O)N=C(N)N | < 4.52 |  |  | 
12 | CS(=O)(=O)O.CS(=O)(=O)O.Cc1[nH]c(-c2cc(Cl)ccc2Cl)nc1C(=O)N=C(N)N | 7.00 | 59 | 25 | 40
13 | Cc1[nH]c(-c2cccc(Cl)c2)nc1C(=O)N=C(N)N | 5.35 |  |  | 
14 | CS(=O)(=O)O.Cc1ccc(C)c(-c2nc(C(=O)N=C(N)N)c(C)o2)c1 | 6.66 | 59 | 9 | 47
15 | COc1ccccc1-c1nc(C(=O)N=C(N)N)c(C)[nH]1 | 5.51 |  |  | 
16 | Cc1[nH]c(-c2cccc(Cl)c2Cl)nc1C(=O)N=C(N)N | 6.30 |  |  | 
17 | CS(=O)(=O)O.Cc1oc(-c2cc(Cl)cc(Cl)c2)nc1C(=O)N=C(N)N | 6.05 | 26 | 25 | 
18 | COc1ccc(Cl)cc1-c1nc(C(=O)N=C(N)N)c(C)[nH]1.CS(=O)(=O)O.CS(=O)(=O)O | 6.62 | 60 | 28 | 34
19 | CS(=O)(=O)O.Cc1[nH]c(-c2cc(Cl)cc(Cl)c2)nc1C(=O)N=C(N)N | 6.28 | 23 | 28 | 

Row | Compound | pIC50 [1] | Activity (Heart [2]) [%] | Activity (Heart [3]) [%] | Activity (Rattus norvegicus) [%]
20 | Cc1cc(C)cc(-c2nc(C(=O)N=C(N)N)c(C)o2)c1 | 5.15 |  |  | 
21 | Cc1cccc(-c2nc(C(=O)N=C(N)N)c(C)[nH]2)c1C | < 4.52 |  |  | 
22 | Cc1cc(C)cc(-c2nc(C(=O)N=C(N)N)c(C)[nH]2)c1 | 5.30 |  |  | 
23 | Cc1cccc(-c2nc(C(=O)N=C(N)N)c(C)[nH]2)c1 | 4.92 |  |  | 
24 | Cc1[nH]c(-c2cc(F)cc(F)c2)nc1C(=O)N=C(N)N | 5.57 |  |  | 
25 | CC(C)c1ccc(C(=O)N=C(N)N)cc1S(C)(=O)=O.CS(=O)(=O)O [CARIPORIDE MESYLATE] |  | 48 | 22 | 41
26 | Cc1[nH]c(-c2cccc(F)c2)nc1C(=O)N=C(N)N | 5.35 |  |  | 
27 | COc1cccc(-c2nc(C(=O)N=C(N)N)c(C)[nH]2)c1OC | < 4.52 |  |  | 
28 | CS(=O)(=O)O.CS(=O)(=O)O.Cc1[nH]c(-c2ccccc2Cl)nc1C(=O)N=C(N)N | 5.85 | 69 | 35 | 50
29 | Cc1[nH]c(-c2cccc(F)c2F)nc1C(=O)N=C(N)N | 5.18 |  |  | 
30 | CS(=O)(=O)O.Cc1oc(-c2cc(Cl)ccc2Cl)nc1C(=O)N=C(N)N | 7.14 | 19 | 27 | 39
31 | COc1ccc(-c2nc(C(=O)N=C(N)N)c(C)[nH]2)cc1 | < 4.52 |  |  | 
32 | Cc1ccccc1-c1nc(C(=O)N=C(N)N)c(C)[nH]1 | 5.62 |  |  | 
33 | Cc1oc(-c2cccc(Cl)c2)nc1C(=O)N=C(N)N | 5.77 |  |  | 
34 | Cc1oc(-c2ccccc2)nc1C(=O)N=C(N)N | 5.09 |  |  | 
35 | Cc1ccc(-c2nc(C(=O)N=C(N)N)c(C)[nH]2)cc1 | < 4.52 |  |  | 
36 | Cc1[nH]c(-c2ccc(Cl)cc2)nc1C(=O)N=C(N)N | < 4.52 |  |  | 
37 | Cc1oc(-c2cc(F)ccc2F)nc1C(=O)N=C(N)N | 5.55 |  |  | 
38 | Cc1[nH]c(-c2ccccc2)nc1C(=O)N=C(N)N | 4.92 |  |  | 
